Measurements taken from PubChem BioAssay (NCI).
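In this assay, cells in 96-well plates receive the compound at five concentrations for 48 hours. Endpoints are linearly interpolated between the surrounding concentrations. GI50 = concentration required for 50% inhibition of growth. TGI is the concentration that stops growth completely.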

Assays:
Experiment in all cases: growth of human tumour cells (NCI), 48 h
K-562 leukemia = tested on: K-562 leukemia
SK-MEL-5 melanoma = tested on: SK-MEL-5 melanoma
HT29 colon = tested on: HT29 colon
HS 578T breast = tested on: HS 578T breast
NCI-H23 lung = tested on: NCI-H23 lung
SN12C renal = tested on: SN12C renal
BT-549 breast = tested on: BT-549 breast
DU-145 prostate = tested on: DU-145 prostate
HOP-92 NSCLC = tested on: HOP-92 NSCLC
RXF 393 renal = tested on: RXF 393 renal

Row | SMILES | TGI (K-562 leukemia) [µM] | TGI (SK-MEL-5 melanoma) [µM] | TGI (HT29 colon) [µM] | TGI (HS 578T breast) [µM] | TGI (NCI-H23 lung) [µM] | TGI (SN12C renal) [µM] | TGI (BT-549 breast) [µM] | TGI (DU-145 prostate) [µM] | TGI (HOP-92 NSCLC) [µM] | GI50 (K-562 leukemia) [µM] | GI50 (SK-MEL-5 melanoma) [µM] | GI50 (HS 578T breast) [µM] | GI50 (RXF 393 renal) [µM] | TGI (RXF 393 renal) [µM] | GI50 (NCI-H23 lung) [µM] | GI50 (SN12C renal) [µM] | GI50 (DU-145 prostate) [µM] | GI50 (HOP-92 NSCLC) [µM] | GI50 (HT29 colon) [µM] | GI50 (BT-549 breast) [µM]
1 | COc1cc2oc3c(c(=O)c2c(O)c1/C=C/C(C)C)C(C=C(C)C)Oc1cc(O)ccc1-3 (stereo unspecified) | 24.2 | 39.9 | 28.8 | 38.2 | 30.5 | 30.4 | 23.4 | 30.2 | 29.3 |  |  |  |  |  |  |  |  |  |  | 
2 | Nc1nc(N)c2nc3c(nc2n1)CCCCCCCCCC3 | > 100 | > 100 |  | > 100 | > 100 | > 100 |  | > 100 | > 100 | 0.43 | 0.652 | 3.63 | 4.12 | > 100 | 2.86 | 7.04 | 2.78 | 3.23 |  | 
3 | CCC1(CN(C)C)CC/C(=C\c2ccc(OC)c(OC)c2)C1=O (stereo unspecified) | > 100 | > 100 | > 100 |  | > 100 | > 100 |  |  | > 100 |  |  |  |  | > 100 |  |  |  |  |  | 
4 | O=c1c2cc3c(cc2c2cccc4c2n1CCC4)OCO3 | > 100 | > 100 | > 100 |  | > 100 | > 100 |  |  | > 100 |  |  |  |  | 92.2 |  |  |  |  |  | 
5 | CCCCCCNCc1cc(C(C)(C)C)cc(CNCCCCCC)c1O | 3.04 | 3.01 | 3.24 | 4.03 | 3.29 | 3.15 |  | 3.21 | 2.04 | 1.3 | 1.65 | 1.72 | 1.62 | 2.99 | 1.71 | 1.7 | 1.8 | 0.549 | 1.75 | 
6 | COc1cc2ccnc3c(=C(SC)SC)c(=O)c(c1OC)c23 | 16.3 |  | 26.2 |  |  | 29.9 |  |  | 21.2 |  |  |  |  | 26.6 |  |  |  |  |  | 
7 | O=c1cccc(-c2cccc(=O)[nH]2)[nH]1 | > 100 | > 100 | > 100 |  | > 100 | > 100 |  |  | 96.5 |  |  |  |  | > 100 |  |  |  |  |  | 
8 | N#Cc1cccc(C=NC23CC4CC(CC(C4)C2)C3)c1 | > 100 |  | > 100 |  | > 100 | > 100 |  |  | > 100 |  |  |  |  | > 100 |  |  |  |  |  | 
9 | Cc1ccc(C2NC(=O)c3ccccc3N2)c(C)c1 (stereo unspecified) | 8.37 | > 39.5 | 34.9 | 6.78 | > 87 | > 86.5 |  | > 100 | > 95.7 |  |  |  |  | > 76.2 |  |  |  |  |  | 
10 | OCCN(CCO)c1cccc(N(CCO)CCO)n1 | > 100 | > 100 |  |  |  |  |  |  | > 100 |  |  |  |  | > 100 |  |  |  |  |  | 
11 | N#CC(C#N)=C/C=C(\Sc1ccc(F)cc1Cl)c1ccc(Cl)cc1 | > 100 | 8.58 |  | 28.2 | 2.49 | 1.34 | 3.7 | 8.55 |  | 0.432 | 2.59 | 1.53 | 2.94 | > 100 | 0.449 | 0.365 | 0.657 |  |  | 0.598
12 | CCCCNc1ccc(Nc2ccccc2)cc1 | 12 | 10.1 | 25.1 | 73.7 | 43 | > 100 | 21.6 | > 100 | 32.5 | 2.45 | 2.78 | 5.11 |  |  | 3.15 | 6.28 | 7.87 | 3.42 | 4.37 | 2.84
13 | COc1cccc(SSc2cccc(OC)c2C(=O)O)c1C(=O)O | > 100 | > 100 | > 100 |  | > 100 | > 100 |  |  | > 100 |  |  |  |  | > 100 |  |  |  |  |  | 
14 | Cc1ccc(S(=O)(=O)N/N=C/C(C)C)cc1 | > 100 | > 100 | > 100 |  | > 100 | > 100 |  |  | > 100 |  |  |  |  | > 100 |  |  |  |  |  | 
15 | Cc1ccc(-n2nnnc2-c2cnc(N3CCOCC3)nc2-c2cccc(C(F)(F)F)c2)cc1 | > 22.6 | 3.42 | > 18.4 | > 13.8 | 4.11 | > 13.9 | 31.3 | 16.9 |  | 1.96 | 0.275 | 1.27 | 1.99 | > 14.5 | 1.36 | 2.53 | 1.62 |  | 1.53 | 8.3
16 | CCC(C)C(=O)OCC(=O)c1ccc(-c2ccccc2)cc1 (stereo unspecified) | > 100 | 72.6 | > 100 | > 100 | > 100 | > 100 | > 100 | > 100 | > 100 |  |  |  |  |  |  |  |  |  |  | 
17 | CC(=O)O[C@H]1CC[C@@]2(C)C(=C/C(=N/OCCN3CCCC3)[C@H]3[C@@H]4CC[C@H](OC(C)=O)[C@@]4(C)CC[C@@H]32)C1 | > 100 | 31.9 | > 100 | > 100 | > 100 | > 100 | > 100 | > 100 | 96.5 | 27.3 | 17.3 | 34.9 |  |  | > 100 | > 100 | > 100 | 16.7 | 12.5 | 53.4
18 | Cc1nc2ccccc2nc1N=Nc1ccccc1 | > 100 | 30.1 | 15.1 |  | 51.1 | > 100 |  | > 100 | 43.9 | 25.7 | 16 |  | 23.4 | > 100 | 14.4 | 30 | 36.1 | 3.03 | 0.193 | 
19 | COC(=O)C(C(=O)OC)C(Br)C(Br)C(Br)c1ccccc1 (stereo unspecified) |  |  | 21.8 | 62.8 |  | 27.3 | 27.9 | 23 | 25.3 |  |  | 18.4 | 4.17 | 15.9 |  | 14 | 10.6 | 11.8 | 5.68 | 14.4
